These results are taken from publication PMC5093622, “Structural characterisation of high affinity Siglec-2 (CD22) ligands in complex with whole Burkitt’s lymphoma (BL) Daudi cells by NMR spectroscopy” (Scientific Reports, 2016).

Data set [1] deals with T1, Siglec-2 expressed on intact Burkitt's lymphoma (BL) Daudi cells.
T1 construct: host or cells: BL Daudi cells
In words: STD NMR binding to intact BL Daudi cells. Also noted: species or system human. The note with it: for STD NMR signals in the presence of BL Daudi cells: 0.5 mM ligand, 5.0 × 10^5 BL Daudi cells, 283 K. The source says:
Anti-human Siglec-1 (CD169)-FITC, (clone: 7-239); Siglec-3 (CD33)-FITC, (clone: AC104.3E3); Siglec-5 (CD170)-FITC (clone: 1A5); Siglec-7 (CD328)-VioBlue, (clone: REA214); Siglec-8-FITC, (clone: 7C9) and relevant isotype controls were purchased from Miltenyi Biotech (Bergisch Gladbach, Germany, UE). Mouse anti-human Siglec-2 (CD22) primary antibody (clone RFB4) and the relevant isotype control (clone 1E2.2) were purchased from Merck Group (Darmstadt, Germany, UE). The rat anti-mouse secondary antibody BV421 conjugated was purchased from BD Biosciences (San Jose, CA, USA). Rabbit anti-human Siglec-4 (Myelin Associated Glycoprotein, MAG) was purchased from LifeSpan BioSciences (Seattle, WA, USA). The Donkey anti-rabbit secondary antibody (Clone Poly4064)-BV421 conjugated was purchased from Biolegend (San Diego, CA, USA). Anti-human Siglec-5/Siglec-14-APC (Clone 194128), Siglec-6 (CD327)-APC (Clone 767329), Siglec-9-FITC (Clone 191240); Goat Siglec-10-PE Affinity Purified PAb, Goat Siglec-11-PE Affinity Purified PAb, Goat IgG-PE control, Siglec-16-APC (Clone 706022), and relevant isotypes were purchased from R&D Systems (Minneapolis, MN, USA). BL Daudi and HEK293T cells were incubated with the antibodies for one hour at 4 °C in PBS supplemented with 1% FCS (PBS-FBS) at a ratio of 1 μg of antibody per 1 × 10^6 cells. The cells were washed three times and then suspended in 1 mL of PBS-FBS buffer prior to flow cytometry analysis. Propidium iodide was used at a concentration of 10 ug/mL to differentiate viable from non-viable cells. Secondary antibodies were used according to the suppliers’ instructions. A CyAn ADP Flow Cytometer and Kaluza Flow Cytometry software were used for flow cytometric analysis (Beckman Coulter, Brea, CA, USA). For sorting the BL Daudi cells into Siglec-2^low and Siglec-2^high fractions, antibody staining was achieved as described above. RPMI-1640 medium containing 50% v/v FBS was used for collecting sorted cells to minimise cell damage. Cells were sorted into low and high expressing Siglec-2 groups based on their fluorescence intensity, using MoFlo XDP (Beckman Coulter, CA, USA).
(§1) STD NMR spectra were performed using a Bruker Advance 600 MHz spectrometer, equipped with a 5-mm TXI probe with triple axis gradients at 283 K. 5 × 10^5 BL Daudi and 1 × 10^6 HEK293T cells were washed three times with the optimised deuterated NMR buffer by centrifugation at 1,300 rpm, at room temperature for 5 min and resuspending in 200 μL. The ligand concentration was adjusted to 0.5 mM for all experiments. To determine the binding epitope of the ligands when bound to cells STDD (Saturation Transfer Double Difference) spectra were generated by subtracting STD NMR signals from the ligand-cell complex from the spectrum obtained in the absence of cells or protein.
Mild periodate treatment to disrupt cis-binding was performed following published procedures. BL Daudi cells were resuspended in phosphate buffer (pH 7.4) containing freshly dissolved 2 mM NaIO4 and incubated at 4 °C in the dark. After 30 min, the excess of periodate was quenched by adding 10 μL of 20% deuterated glycerol followed by immediate washing with deuterated buffer optimised for cell NMR experiments. The STD NMR on-resonance frequency was set to −1.00 ppm and the off-resonance to 300 ppm. To ensure the viability of the cells during NMR acquisition 256 scans were chosen resulting in a total acquisition time of 53 min.

Data set [2] concerns the target T2, Siglec-2 Fc chimeras (Homo sapiens, UniProt P20273).
T2 construct: the three N-terminal Ig-domains of Siglec-2 were fused to the C-terminal human IgG1 Fc domain; made in house; host or cells: CHO-Lec1
In words: Surface Plasmon Resonance (SPR) assay. The format is binding. The protocol: Recombinant Siglec-2 (CD22) Fc-chimeras were expressed in CHO-Lec1 and protein purification was performed as described. The recombinant Siglec-2-Fc chimera, in which the three N-terminal Ig-domains of Siglec-2 were fused to the C-terminal human IgG1 Fc domain, was expressed in CHO-Lec1 cells.
Siglec-Fc chimeras were either captured to anti-Fc antibody-derivatised dextran surface of a Reichert SR7500DC flow cell or directly immobilized by amide coupling. N-acetylneuraminic acid derivatives at various concentrations in PBS were passed over the flow cell at a flow rate of 20 μL/min followed by buffer for dissociation. Specific binding was determined by subtracting the signal obtained from the reference cell (ethanolamine derivatised dextran surface) from the sample cell derivatised with Siglec-2 Fc chimeras. The data were analysed and fitted using the software Scrubber (BioLogic). Corresponding sensorgrams for 7 and 8 are shown in Supplementary Figure 2a,b, respectively.

Data set [3] concerns Siglec-2. Conditions: cited from earlier work.
Data set [4] concerns T3, Siglec-2 transiently expressed on HEK293T cells.
T3 construct: host or cells: HEK293T
In words: STD NMR binding to untransfected and Siglec-2 transfected HEK293T cells. Also noted: species or system human. The procedure: as §1
The full-length codon-optimized coding sequence of Siglec-2 (Uniprot entry P20273-1) cloned in plasmid pD2517 was purchased from DNA2.0 (Menlo Park, CA, USA). Plasmid amplification was performed by transformation into chemically competent E. coli NEB 5-alpha (Ipswich, MA, USA) followed by purification using a NucleoBond XTRA EF Plasmid Purification Kit (Machery Nagel, Duren, Germany, EU). […] Transfection efficiency was monitored by flow cytometry analysis 24 and 48 h post-transfection. […]

Details of data set [5]: method as in PMID 10589082. Conditions: patients treated with Rituximab; cited from earlier work.

T2 sequence (P20273 with tags, fused parts or gaps limits assumed): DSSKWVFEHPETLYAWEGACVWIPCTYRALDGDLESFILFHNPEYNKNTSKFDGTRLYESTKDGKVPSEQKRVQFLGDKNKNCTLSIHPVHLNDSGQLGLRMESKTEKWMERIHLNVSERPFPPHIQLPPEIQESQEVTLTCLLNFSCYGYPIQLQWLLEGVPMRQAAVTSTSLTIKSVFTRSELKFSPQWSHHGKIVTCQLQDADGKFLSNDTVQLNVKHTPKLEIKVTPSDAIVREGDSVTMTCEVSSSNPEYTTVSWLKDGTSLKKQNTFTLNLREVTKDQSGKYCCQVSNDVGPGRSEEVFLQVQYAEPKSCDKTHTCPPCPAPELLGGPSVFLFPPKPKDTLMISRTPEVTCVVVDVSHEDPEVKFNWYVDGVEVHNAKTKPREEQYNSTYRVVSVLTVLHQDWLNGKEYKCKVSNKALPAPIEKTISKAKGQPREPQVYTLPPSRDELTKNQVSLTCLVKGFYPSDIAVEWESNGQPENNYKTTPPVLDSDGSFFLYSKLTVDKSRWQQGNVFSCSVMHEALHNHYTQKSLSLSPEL

For `OC[C@H]1O[C@@](CO)(O[C@H]2O[C@H](CO)[C@@H](O)[C@H](O)[C@H]2O)[C@@H](O)[C@@H]1O` [sucrose, reference compound], the “STD NMR signals in the presence of BL Daudi cells” value (shortened to “STD NMR signals in the presence”) in data set [1] was “no STD NMR signals can be detected”.

In data set [2], `COc1cccc(C(=O)N[C@@H]2[C@@H](NC(C)=O)[C@H]([C@H](O)[C@H](O)CNC(=O)c3ccc(-c4ccccc4)cc3)O[C@@](OCc3cn(CC(=O)O)nn3)(C(=O)O)[C@H]2O)c1` [compound 8, 9-BPC-2-(4-carboxymethyl-[1,2,3]triazol-1-yl)-3-hydroxy-4-meta-methoxyphenyl-carboxamido-Neu5Acα2Me] displayed a Kd of 0.175 µM.

In data set [2], `CC(=O)N[C@@H]1[C@@H](NC(=O)c2cccc([N+](=O)[O-])c2)[C@H](O)[C@](OCc2cn(CC(=O)O)nn2)(C(=O)O)O[C@H]1[C@H](O)[C@H](O)CNC(=O)c1ccc(-c2ccccc2)cc1` [compound 7] gave a Kd of 0.182 µM. Besides, the “STD NMR signals in the presence” value in data set [1] is recorded as “strong STD NMR signals”.

Take `COC1(C(=O)O)CC(O)C(NC(C)=O)C(C(O)C(O)CO)O1` (stereo not drawn) [compound 1, Neu5Acα2Me]: the IC50 in data set [3] (read-out: IC50 value (binding potency for Siglec-2)) was 1400 µM.

Take `COC1(C(=O)O)CC(O)C(NC(C)=O)C(C(O)C(O)CNC(=O)c2ccc(-c3ccccc3)cc2)O1` (stereo not drawn) [compound 2, 9-BPC-Neu5Acα2Me, reference compound]: the Kd in data set [2] amounted to 4.34 µM. For the same compound, the “increase of overall potency by a factor” value in data set [3] (relative to Neu5Acα2Me (1)) was 224.

`COC1(C(=O)O)CC(NC(=O)c2cccc([N+](=O)[O-])c2)C(NC(C)=O)C(C(O)C(O)CNC(=O)c2ccc(-c3ccccc3)cc2)O1` (stereo not drawn) [compound 3, 9-biphenylcarboxamido-4-meta-nitrophenyl-carboxamido-Neu5Acα2Me] gave a Kd in data set [2] of 0.66 µM. Further, in data set [1], the “STD NMR signals in the presence” value was “strong and significant signals”. In data set [1] (N-acetyl methyl protons, 5.0 × 10^5 sorted cells), the “increase in absolute STD NMR signal intensity, Siglec-2^high versus Siglec-2^low BL Daudi cells” value is 46%. Further, the “change in STD NMR signal intensities with periodate pretreated BL Daudi cells” value in data set [1] (cells pre-treated with 2 mM NaIO4, versus untreated cells) was “significant increase”. In addition, the “increase in STD NMR signal intensity, Siglec-2 transfected versus untransfected HEK293T cells” value in data set [4] (1.0 × 10^6 cells, 283 K) came out at 75 fold. Further, the “STD NMR signal intensity with non-transfected HEK293T cells” value in data set [4] (1.0 × 10^6 untransfected cells) is on record as “Very low signal intensity”. The “fold higher affinity than 9-BPC-Neu5Acα2Me (2)” value in data set [3] (relative to 2) is on record as 15 fold.

For the compound Rituximab: anti-CD20 antibody, in data set [5], the “patients suffering from severe side effects” value is 80%.

For orientation: Kd means the equilibrium constant for the complex coming apart. As usually defined, the IC50 is the concentration that gives 50% inhibition.
